US20100317671A1, “XANTHINE-BASED CYCLIC GMP-ENHANCING RHO-KINASE INHIBITOR INHIBITS PHYSIOLOGICAL ACTIVITIES OF LUNG EPITHELIAL CELL LINE” (KAOHSIUNG MEDICAL UNIVERSITY, priority 2008, published 2010)
Structures can show the parent of a compound that is named as a salt.

Assays:
inflammatory cells = test: H&E stain of lung tissue sections, bleomycin mice; type: in vivo; conditions: day 28
Description: In the histology observation, the bleomycin-induced mice show the pathology characteristic of lung fibrosis. In the lung tissue sections of the normal control group, the structure of the lung tissue is clear and has no inflammatory cells infiltration, the alveolar wall is complete and not being broaden, the lung atrophy and the vascular wall thickening are not found, and the inflammatory cells infiltration is not found in the bronchial cavity and the alveolar cavity. […] On day 28, the alveolar is dystructured, the macrophage aggregation can be seen in part of aveoli, the fibroblast and fibric cell proliferate, and the fibers are accumulated in the lung interstitium. In the treating group, the inflammatory state is inhibited well on day 7.
The with 10% formalin treated and freezed lung is placed in a tissue dehydrating machine, and the tissue is fixed, dehydrated, washed and rinsed in turn. The tissue is further prepared as a wax-embedded tissue by a tissue embedded machine through appropriate cooling. The wax-embedded tissue is cut by a sliding microtome. The slices about 4 μm are placed on the slides and extended in 35° C.-50° C. warm water, and then dried in a 56° C.-60° C. extender for staining
The slices are successively dehydrated via 50%-99.9% ethanol, incubated in xylene for 2 hrs and the incubation step is repeated twice. […]

[1] = system: inflammatory cells in the lung lavage; test: Inflammatory cells in lung lavage, bleomycin-induced IPF mice; type: in vivo; parameters: WBC total (white blood cell total count) / NE (neutrophil) / LY (lymphocyte) / MO (monocyte) / EO (eosinophil) / BA (basophil): unit not given here; conditions: lung lavage
Protocol: The amounts of the total cell, the neutrophill, the lymphocyte, the monocyte, the eosinophill and the basophill are analyzed by an automatic animal blood cell analyzer for evaluating the extent of the inflammation. […] The mice are euthanatized by administering the Urathane in a dose of 37.5 mg/10 g. The larynx is opened, the trachea is picked out, cut and held by a forcepts and a 0.58 mm PE tube is slowly inserted the trachea for infusing 0.5 ml PBS. The PBS is incubated for 15 seconds and then collected after gently massaging the lung tissue. 1 c.c. lung lavage is obtained after the above steps are repeated twice. The lung lavage is collected and transferred into a centrifuged tube for centrifuging at 1,200 rpm at 4° C. for 6 mins. The supernatant is collected and stored at −80° C. for zymography, and the pellet is suspended in PBS for calculating the WBC count. The pellet of the alveolar lavage is suspended in PBS and transferred into an eppendorff. The amount and kind of the inflammatory cell such as WBC total, the lymphocyte, the monocyte, the neutrophil, the eosinophil and the basophil are analyzed by an automatic animal blood cell analyzer.

[2] = Body weight change, bleomycin-induced IPF mice; type: in vivo
Protocol: The six-week old mice are used in this experiment and divided into ten groups as follows. […] The six-week old male C57B1/6 mice are purchased from the National Laboratory Animal Center. […] After being […] pentobarbital in the dose of 0.52 mg/10 g, the mice is kept upright and positioned an otoscope into the larynx for looking into the trachea clearly. The bleomycin is loaded by a loading tip for intratracheal administration.

collagen = test: Collagen amount, bleomycin-induced IPF mice; type: in vivo; conditions: day 28 after BLM
Protocol: The amount of the collagen in the lung lavage is measured to reflect the fibrosis formation. […] (2) After the lung lavage is obtained, the chest of mice is opened and the lung lobes are cut one by one. […] The 1.5 ml eppendorffs are taken to arrange the calibration curve as follows. […] The eppendorff is then centrifuged at 12,000 rpm for 10 mins. The supernatant in the eppendorff is poured out slowly, 1 ml basic compound is added for dissolving the precipitation. After being violently shaken for 5 mins, the reaction is incubated for 3 hrs to stabilize the color. […] The amount of collagen is estimated through the 540 nm absorption measured by the ELISA reader.

MMP-9 [3] = test: OVA-induced MMP-9 expression in lung tissue, asthma mice; type: in vivo, BALB/c mice; conditions: OVA + drug 5 mM spray, 30 mins/day, days 21 to 27; lung tissue; OVA + vehicle control 100%
Protocol: The male BALB/c mice (20-23 g) are injected (i.p.) with OVA (5 mM, 30 mins), sensitized with OVA on day 1 and day 8 via i.p injection and activated by 2 mg aluminum hydroxide to which 2 μg OVA is absorbed. […] The asthmatic animals are divided into 5 groups, wherein the control group is only administered with saline spray and the remaining experimental groups are firstly administered with 1% OVA spray and then administered with the sprays of the related complex salts respectively as shown in Table 4. The inhibition of the expression of OVA-induced MMP-9 in lung tissue of BALB/c mice is measured.

[4] = Monocrotaline (MCT)-induced pulmonary arterial hypertension, PABP; type: in vivo, male Wistar rats; conditions: MCT-treated rats; for Pulmonary arterial blood pressure (PABP), in words: 2.5 mg/kg orally every day; for PABP: 2.5 mg/kg/day p.o.
Protocol: The rats administered MCT (60 mg/kg) are caused pulmonary artery hypertension on day 21 after the intraperitoneal injection. The KMUP-1HCl salt (2.5 mg/kg), Simvastatin (2.5 mg/kg), KMUP-1-nicotinic acid complex (2.5 mg/kg), KMUP-1-citric acid complex (2.5 mg/kg), KMUP-1-Simvastatinic Acid complex (2.5 mg/kg) and KMUP-1-γ-polyglutamic acid complex (2.5 mg/kg) orally administered, or the KMUP-1-PGI2 complex (0.1 mM) inhaled every day may inhibit the pulmonary arterial blood pressure (PABP) in MCT-treated male Wistar rats.

TGF-β = TGF-β expression, bleomycin-induced lung fibrosis (EIA); type: in vivo, mice; conditions: BM 60 mg/kg
Protocol: The increased amount of the collagen synthesis and the macrophage generation in alveolus may facilitate the formulation of TGF-β, and the expression of TGF-β is deeming as a biomarker of the lung fibrosis. KMUP-1HCl salt (1, 2.5 and 5 mg/kg), the Simvastatin (5 mg/kg), the KMUP-1-nicotinic acid complex (2.5 mg/kg), the KMUP-1-Simvastatinic acid complex (2.5 mg/kg) and KMUP-1-γ-polyglutamic acid complex (2.5 mg/kg) are orally administered to the mice for inhibiting the lung fibrosis induced by TGF-β expression in tracheal lavage solution that resulted from 60 mg/kg BM inhalation (Table 6). The state of the TGF-β expression in the lavage is measured by the enzyme immunoassay (EIA).

MMP-9 [5] = test: Short-term nebulization without OVA sensitization, lung tissue; type: in vivo, mice; conditions: L-NAME-pretreatment 12 mM, 30 mins
Protocol: (§1) Short-term KMUP-1 (5 mM, 30 min) nebulization and pretreatment with L-NAME (12 mM, […]) are accomplished using a previously described method. Aerosols were generated by ultrasonic nebulizer from day 21 to 27. Mice were sacrificed on day 28. Three different experiments were performed on cohorts of 7-14 mice per experimental condition.
(§2) Please refer to FIGS. 22(B) and 23(B), the changes of eNOS and MMP-9 expression by KMUP-1 (2.5 mM, 30 mins) are reversed by L-NAME-pretreatment (12 mM, 30 mins).

eNOS = test: as above; type: in vivo, mice; conditions: L-NAME-pretreatment 12 mM, 30 mins
Protocol: as §1, §2

Compound: CC[C@H]1OC(=O)[C@H](C)[C@@H](O[C@H]2C[C@@](C)(OC)[C@@H](O)[C@H](C)O2)[C@H](C)[C@@H](O[C@@H]2O[C@H](C)C[C@H](N(C)C)[C@H]2O)[C@](C)(OC)C[C@@H](C)C(=O)[C@H](C)[C@@H](O)[C@]1(C)O [Clarithromycin, reference compound]
- Inflammation, H&E stain (inflammatory cells): still has a significant inflammation phenomenon
- BA (basophil) ([1]; day 7, dose 10 mg/kg): 0.02 ± 0.01
- EO (eosinophil) ([1]; day 7, dose 10 mg/kg): 0.07 ± 0.02
- LY (lymphocyte) ([1]; day 7, dose 10 mg/kg): 0.56 ± 0.17
- MO (monocyte) ([1]; day 7, dose 10 mg/kg): 0.05 ± 0.02
- NE (neutrophil) ([1]; day 7, dose 10 mg/kg): 0.2 ± 0.09
- WBC total (white blood cell total count) ([1]; day 7, dose 10 mg/kg): 0.89 ± 0.3
- BA (basophil) ([1]; day 28, dose 10 mg/kg): 0.25 ± 0.16
- EO (eosinophil) ([1]; day 28, dose 10 mg/kg): 0.5 ± 0.33
- LY (lymphocyte) ([1]; day 28, dose 10 mg/kg): 1.64 ± 1.49
- MO (monocyte) ([1]; day 28, dose 10 mg/kg): 0.16 ± 0.16
- NE (neutrophil) ([1]; day 28, dose 10 mg/kg): 0.68 ± 0.57
- WBC total (white blood cell total count) ([1]; day 28, dose 10 mg/kg): 3.23 ± 0.52
- Body weight ([2]; Day 7, dose 10 mg/kg): 19.93 ± 3.28 g
- Body weight ([2]; Day 14, dose 10 mg/kg): 19.17 ± 3.77 g
- Body weight ([2]; Day 28, dose 10 mg/kg): 24.7 ± 1.21 g
- Body weight ([2]; Day −3, dose 10 mg/kg): 24.6 ± 1.48 g
- The amount of collagen (collagen; dose 10 mg/kg): 86.07 ± 0.02 μg/lung

Compound: Cn1c(=O)c2c(ncn2CCN2CCN(c3ccccc3Cl)CC2)n(C)c1=O [KMUP-1 HCl salt]
- Inhibition % of the MMP-9 (MMP-9 [3]): 55%
- Pulmonary arterial blood pressure (PABP), in words [4]: inhibit
- PABP [4]: 13 ± 1.7 mmHg
- The changing amount of TGF-β in the lung tissue (TGF-β; drug 2.5 mg/kg oral): 52 ± 5.2%

Compound: CC(=O)N[C@@H](CS)C(=O)O.Cn1c(=O)c2c(ncn2CCN2CCN(c3ccccc3Cl)CC2)n(C)c1=O [KMUP-1-Acetylcysteine]
- Inhibition % of the MMP-9 (MMP-9 [3]): 68%

Compound: Cn1c(=O)c2c(ncn2CCN2CCN(c3ccccc3Cl)CC2)n(C)c1=O.N=C(N)NCCCC(N)C(=O)O [KMUP-1-Arginine]
- Inhibition % of the MMP-9 (MMP-9 [3]): 65%

Compound: CC(C)(O)c1ccccc1CCC(SCC1(CC(=O)O)CC1)c1cccc(C=Cc2ccc3ccc(Cl)cc3n2)c1.Cn1c(=O)c2c(ncn2CCN2CCN(c3ccccc3Cl)CC2)n(C)c1=O (stereo not drawn) [KMUP-1-Montelukast]
- Inhibition % of the MMP-9 (MMP-9 [3]): 70%

Compound: Cn1c(=O)c2c(ncn2CCN2CCN(c3ccccc3Cl)CC2)n(C)c1=O.O=C(O)c1cccnc1 [KMUP-1-Nicotinic acid]
- Pulmonary arterial blood pressure (PABP), in words [4]: inhibit
- PABP [4]: 12 ± 2.6 mmHg
- The changing amount of TGF-β in the lung tissue (TGF-β; drug 2.5 mg/kg oral): 42 ± 3.8%

Compound: COC(=O)[C@@H](N)CCCNC(=N)N[N+](=O)[O-] [L-NAME, reference compound]
- Change of MMP-9 expression by KMUP-1 (2.5 mM, 30 mins) (MMP-9 [5]): reversed
- Change of eNOS expression by KMUP-1 (2.5 mM, 30 mins) (eNOS): reversed

Compound: CCC(C)(C)C(=O)O[C@H]1C[C@@H](C)C=C2C=C[C@H](C)[C@H](CC[C@@H]3C[C@@H](O)CC(=O)O3)[C@H]21 [Simvastatin, reference compound]
- BA (basophil) ([1]; day 7, dose 5 mg/kg): 0.22 ± 0.23
- EO (eosinophil) ([1]; day 7, dose 5 mg/kg): 0.46 ± 0.4
- LY (lymphocyte) ([1]; day 7, dose 5 mg/kg): 1.5 ± 2.17
- MO (monocyte) ([1]; day 7, dose 5 mg/kg): 0.13 ± 0.19
- NE (neutrophil) ([1]; day 7, dose 5 mg/kg): 0.76 ± 0.53
- WBC total (white blood cell total count) ([1]; day 7, dose 5 mg/kg): 3.09 ± 2.98
- BA (basophil) ([1]; day 28, dose 5 mg/kg): 0.22 ± 0.22
- EO (eosinophil) ([1]; day 28, dose 5 mg/kg): 0.46 ± 0.35
- LY (lymphocyte) ([1]; day 28, dose 5 mg/kg): 1.5 ± 3.03
- MO (monocyte) ([1]; day 28, dose 5 mg/kg): 0.13 ± 0.26
- NE (neutrophil) ([1]; day 28, dose 5 mg/kg): 0.76 ± 0.61
- WBC total (white blood cell total count) ([1]; day 28, dose 5 mg/kg): 3.09 ± 0.92
- Body weight ([2]; Day 7, dose 5 mg/kg): 17.9 ± 1.56 g
- Body weight ([2]; Day 14, dose 5 mg/kg): 19.8 ± 2.31 g
- Body weight ([2]; Day 28, dose 5 mg/kg): 20.3 ± 1.65 g
- Body weight ([2]; Day −3, dose 5 mg/kg): 23.5 ± 1.32 g
- The amount of collagen (collagen; dose 5 mg/kg): 140.53 ± 0.05 μg/lung
- The changing amount of TGF-β in the lung tissue (TGF-β; drug 5 mg/kg oral): 40 ± 4.3%
